# In patent publication US10167262B2, “Herbicidal substituted 3-arylpyrazoles” (FMC CORPORATION, priority 2014, dated 2019):
# What was measured:
# Format in all cases: in vivo
# [1] = test system: Italian ryegrass (Lolium multiflorum); assay: Test E pre-/postemergence greenhouse test, plant response rating 0-100; details: scale 0 to 100; for Ryegrass, Italian plant response rating: Preemergence
# Outline: (§1)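 Ratings (0 no effect to 100 complete control) came from visual comparison with untreated controls 14 to 21 days after treatment. Compounds in a surfactant-containing non-phytotoxic solvent were applied preemergence to seeded silt loam and postemergence to plants at the 1- to 4-leaf stage.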
# corn (Zea mays) = assay: as above; details: scale 0 to 100; for Corn plant response rating: Preemergence
# Outline: as §1
# [2] = test system: field bindweed (Convolvulus arvensis); assay: as above; details: scale 0 to 100; for Field Bindweed plant response rating: Preemergence
# Outline: as §1
# soybean (Glycine max) = assay: as above; details: scale 0 to 100; for Soybean plant response rating: Preemergence
# Outline: as §1
# [3] = test system: waterhemp_RES1, (ALS & Triazine resistant common waterhemp, Amaranthus rudis); assay: Test E postemergence greenhouse test, plant response rating 0-100; details: scale 0 to 100
# Outline: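 Resistant waterhemp biotypes grown in peat/vermiculite medium and treated postemergence at 2–18 cm height (1- to 4-leaf stage). Kept in greenhouse 14 to 21 days, then visually rated against untreated controls on a 0–100 scale (0 no effect, 100 complete control).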
# [4] = test system: large (Lg) crabgrass (Digitaria sanguinalis); assay: Test E pre-/postemergence greenhouse test, plant response rating 0-100; details: Preemergence, scale 0 to 100
# [5] = test system: giant foxtail (Setaria faberii); assay: as above; details: Preemergence, scale 0 to 100
# [6] = test system: green foxtail (Setaria viridis); assay: as above; details: Preemergence, scale 0 to 100
# [7] = test system: goosegrass (Eleusine indica); assay: as above; details: Preemergence, scale 0 to 100
# [8] = test system: johnsongrass (Sorghum halepense); assay: as above; details: Preemergence, scale 0 to 100
# [9] = test system: ragweed (common ragweed, Ambrosia elatior); assay: as above; details: Preemergence, scale 0 to 100
# Outline: as §1
# [10] = test system: surinam grass (Brachiaria decumbens); assay: as above; details: Preemergence, scale 0 to 100
# Outline: as §1
# [11] = test system: morningglory (Ipomoea coccinea); assay: as above; details: Preemergence, scale 0 to 100
# [12] = test system: yellow nutsedge (Cyperus esculentus); assay: as above; details: Preemergence, scale 0 to 100
# [13] = test system: smartweed (ladysthumb smartweed, Polygonum persicaria); assay: as above; details: Preemergence, scale 0 to 100
structure (smiles),measurement,setting,value
Cn1cc(C(=O)c2cccs2)c(-c2cc(Cl)cc(Cl)c2)n1 [Compound 17],"Plant response rating, Ryegrass, Italian","[1]; Postemergence, 31 g ai/ha",0
same,"Plant response rating, Ryegrass, Italian","[1]; Postemergence, 62 g ai/ha",0
same,"Plant response rating, Ryegrass, Italian","[1]; Postemergence, 125 g ai/ha",0
same,"Plant response rating, Ryegrass, Italian","[1]; Postemergence, 250 g ai/ha",0
same,"Plant response rating, Ryegrass, Italian","[1]; Postemergence, 500 g ai/ha",0
same,"Plant response rating, Corn","corn (Zea mays); Postemergence, 31 g ai/ha",0
same,"Plant response rating, Corn","corn (Zea mays); Postemergence, 62 g ai/ha",0
same,"Plant response rating, Corn","corn (Zea mays); Postemergence, 125 g ai/ha",0
same,"Plant response rating, Corn","corn (Zea mays); Postemergence, 250 g ai/ha",0
same,"Plant response rating, Corn","corn (Zea mays); Postemergence, 500 g ai/ha",0
same,"Plant response rating, Field Bindweed","[2]; Postemergence, 31 g ai/ha",0
same,"Plant response rating, Field Bindweed","[2]; Postemergence, 62 g ai/ha",10
same,"Plant response rating, Field Bindweed","[2]; Postemergence, 125 g ai/ha",20
same,"Plant response rating, Field Bindweed","[2]; Postemergence, 250 g ai/ha",30
same,"Plant response rating, Field Bindweed","[2]; Postemergence, 500 g ai/ha",30
same,"Plant response rating, Soybean","soybean (Glycine max); Postemergence, 31 g ai/ha",0
same,"Plant response rating, Soybean","soybean (Glycine max); Postemergence, 62 g ai/ha",0
same,"Plant response rating, Soybean","soybean (Glycine max); Postemergence, 125 g ai/ha",0
same,"Plant response rating, Soybean","soybean (Glycine max); Postemergence, 250 g ai/ha",15
same,"Plant response rating, Soybean","soybean (Glycine max); Postemergence, 500 g ai/ha",20
same,"Plant response rating, Waterhemp_RES1",[3]; 31 g ai/ha,70
same,"Plant response rating, Waterhemp_RES1",[3]; 62 g ai/ha,70
same,"Plant response rating, Waterhemp_RES1",[3]; 250 g ai/ha,85
same,"Plant response rating, Waterhemp_RES1",[3]; 500 g ai/ha,85
"COCC(=O)n1cc(C(=O)c2ccccc2)c(-c2cc(Cl)cc(Cl)c2)n1 [Compound 16, 1-[4-benzoyl-3-(3,5-dichlorophenyl)-1H-pyrazol-1-yl]-2-methoxyethanone]","Crabgrass, Large plant response rating",[4]; 31 g ai/ha,0
same,"Crabgrass, Large plant response rating",[4]; 62 g ai/ha,0
same,"Crabgrass, Large plant response rating",[4]; 125 g ai/ha,0
same,"Crabgrass, Large plant response rating",[4]; 250 g ai/ha,0
same,"Crabgrass, Large plant response rating",[4]; 500 g ai/ha,0
same,"Foxtail, Giant plant response rating",[5]; 31 g ai/ha,0
same,"Foxtail, Giant plant response rating",[5]; 62 g ai/ha,0
same,"Foxtail, Giant plant response rating",[5]; 125 g ai/ha,0
same,"Foxtail, Giant plant response rating",[5]; 250 g ai/ha,0
same,"Foxtail, Giant plant response rating",[5]; 500 g ai/ha,0
same,"Foxtail, Green plant response rating",[6]; 31 g ai/ha,0
same,"Foxtail, Green plant response rating",[6]; 62 g ai/ha,0
same,"Foxtail, Green plant response rating",[6]; 125 g ai/ha,0
same,"Foxtail, Green plant response rating",[6]; 250 g ai/ha,0
same,"Foxtail, Green plant response rating",[6]; 500 g ai/ha,0
same,Goosegrass plant response rating,[7]; 31 g ai/ha,0
same,Goosegrass plant response rating,[7]; 62 g ai/ha,0
same,Goosegrass plant response rating,[7]; 125 g ai/ha,0
same,Goosegrass plant response rating,[7]; 250 g ai/ha,40
same,Goosegrass plant response rating,[7]; 500 g ai/ha,50
same,Johnsongrass plant response rating,[8]; 31 g ai/ha,0
same,Johnsongrass plant response rating,[8]; 62 g ai/ha,0
same,Johnsongrass plant response rating,[8]; 125 g ai/ha,0
same,Johnsongrass plant response rating,[8]; 250 g ai/ha,0
same,Johnsongrass plant response rating,[8]; 500 g ai/ha,30
same,pest or weed control at 31 g/ha,"[1]; Lolium multiflorum, post-emergence, Postemergence, 31 g ai/ha",0%
same,pest or weed control at 62 g/ha,"[1]; Lolium multiflorum, post-emergence, Postemergence, 62 g ai/ha",0%
same,pest or weed control at 125 g/ha,"[1]; Lolium multiflorum, post-emergence, Postemergence, 125 g ai/ha",0%
same,pest or weed control at 250 g/ha,"[1]; Lolium multiflorum, post-emergence, Postemergence, 250 g ai/ha",0%
same,pest or weed control at 500 g/ha,"[1]; Lolium multiflorum, post-emergence, Postemergence, 500 g ai/ha",0%
same,"Ryegrass, Italian plant response rating",[1]; 31 g ai/ha,0
same,"Ryegrass, Italian plant response rating",[1]; 62 g ai/ha,0
same,"Ryegrass, Italian plant response rating",[1]; 125 g ai/ha,0
same,"Ryegrass, Italian plant response rating",[1]; 250 g ai/ha,0
same,"Ryegrass, Italian plant response rating",[1]; 500 g ai/ha,0
same,Corn plant response rating,corn (Zea mays); 31 g ai/ha,0
same,Corn plant response rating,corn (Zea mays); 62 g ai/ha,0
same,Corn plant response rating,corn (Zea mays); 125 g ai/ha,0
same,Corn plant response rating,corn (Zea mays); 250 g ai/ha,0
same,Corn plant response rating,corn (Zea mays); 500 g ai/ha,0
same,"Corn plant response rating (crop injury, 0 = no effect, 100 = complete kill) at 31 g/ha","corn (Zea mays); Zea mays, post-emergence, Postemergence, 31 g ai/ha",0%
same,"Corn plant response rating (crop injury, 0 = no effect, 100 = complete kill) at 62 g/ha","corn (Zea mays); Zea mays, post-emergence, Postemergence, 62 g ai/ha",0%
same,"Corn plant response rating (crop injury, 0 = no effect, 100 = complete kill) at 125 g/ha","corn (Zea mays); Zea mays, post-emergence, Postemergence, 125 g ai/ha",0%
same,"Corn plant response rating (crop injury, 0 = no effect, 100 = complete kill) at 250 g/ha","corn (Zea mays); Zea mays, post-emergence, Postemergence, 250 g ai/ha",0%
same,"Corn plant response rating (crop injury, 0 = no effect, 100 = complete kill) at 500 g/ha","corn (Zea mays); Zea mays, post-emergence, Postemergence, 500 g ai/ha",0%
same,pest or weed control at 31 g/ha,"[2]; Convolvulus arvensis, post-emergence, Postemergence, 31 g ai/ha",0%
same,pest or weed control at 62 g/ha,"[2]; Convolvulus arvensis, post-emergence, Postemergence, 62 g ai/ha",0%
same,pest or weed control at 125 g/ha,"[2]; Convolvulus arvensis, post-emergence, Postemergence, 125 g ai/ha",0%
same,pest or weed control at 250 g/ha,"[2]; Convolvulus arvensis, post-emergence, Postemergence, 250 g ai/ha",0%
same,pest or weed control at 500 g/ha,"[2]; Convolvulus arvensis, post-emergence, Postemergence, 500 g ai/ha",0%
same,Field Bindweed plant response rating,[2]; 31 g ai/ha,0
same,Field Bindweed plant response rating,[2]; 62 g ai/ha,0
same,Field Bindweed plant response rating,[2]; 125 g ai/ha,0
same,Field Bindweed plant response rating,[2]; 250 g ai/ha,0
same,Field Bindweed plant response rating,[2]; 500 g ai/ha,30
same,Ragweed plant response rating,[9]; 31 g ai/ha,0
same,Ragweed plant response rating,[9]; 62 g ai/ha,0
same,Ragweed plant response rating,[9]; 125 g ai/ha,85
same,Ragweed plant response rating,[9]; 250 g ai/ha,90
same,Ragweed plant response rating,[9]; 500 g ai/ha,98
same,plant injury at 31 g/ha,"soybean (Glycine max); Glycine max, post-emergence, Postemergence, 31 g ai/ha",0%
same,plant injury at 62 g/ha,"soybean (Glycine max); Glycine max, post-emergence, Postemergence, 62 g ai/ha",0%
same,plant injury at 125 g/ha,"soybean (Glycine max); Glycine max, post-emergence, Postemergence, 125 g ai/ha",0%
same,plant injury at 250 g/ha,"soybean (Glycine max); Glycine max, post-emergence, Postemergence, 250 g ai/ha",0%
same,plant injury at 500 g/ha,"soybean (Glycine max); Glycine max, post-emergence, Postemergence, 500 g ai/ha",0%
same,Soybean plant response rating,soybean (Glycine max); 31 g ai/ha,0
same,Soybean plant response rating,soybean (Glycine max); 62 g ai/ha,0
same,Soybean plant response rating,soybean (Glycine max); 125 g ai/ha,0
same,Soybean plant response rating,soybean (Glycine max); 250 g ai/ha,0
same,Soybean plant response rating,soybean (Glycine max); 500 g ai/ha,0
same,Surinam Grass plant response rating,[10]; 31 g ai/ha,0
same,Surinam Grass plant response rating,[10]; 62 g ai/ha,0
same,Surinam Grass plant response rating,[10]; 125 g ai/ha,0
same,Surinam Grass plant response rating,[10]; 250 g ai/ha,0
same,Surinam Grass plant response rating,[10]; 500 g ai/ha,0
same,Morningglory plant response rating,[11]; 31 g ai/ha,0
same,Morningglory plant response rating,[11]; 62 g ai/ha,20
same,Morningglory plant response rating,[11]; 125 g ai/ha,20
same,Morningglory plant response rating,[11]; 250 g ai/ha,0
same,Morningglory plant response rating,[11]; 500 g ai/ha,40
same,"Nutsedge, Yellow plant response rating",[12]; 31 g ai/ha,0
same,"Nutsedge, Yellow plant response rating",[12]; 62 g ai/ha,20
same,"Nutsedge, Yellow plant response rating",[12]; 125 g ai/ha,35
same,"Nutsedge, Yellow plant response rating",[12]; 250 g ai/ha,0
same,"Nutsedge, Yellow plant response rating",[12]; 500 g ai/ha,0
same,Smartweed plant response rating,[13]; 31 g ai/ha,0
same,Smartweed plant response rating,[13]; 62 g ai/ha,0
same,Smartweed plant response rating,[13]; 125 g ai/ha,100
same,Smartweed plant response rating,[13]; 250 g ai/ha,100
same,Smartweed plant response rating,[13]; 500 g ai/ha,100
